Target: T1, TrkA (Homo sapiens, UniProt P04629)
T1 construct: purchased Cell Signaling
Experiment: TrkA kinase activity: phosphorylation of a fluorescently labeled peptide substrate (Caliper EZReader II)
Assay type: biochemical
Conditions: [E]=0.37 nM, [S]=1 μM, [ATP]=2 mM, room temperature, 3 hours; read-out: Trk A EC50
Method: TrkA kinase activity was measured as the ability of the enzyme to phosphorylate a fluorescently labeled peptide substrate. Buffer salts, reagents, and fluorescently labeled peptides were purchased from Carna Biosciences and were of the highest quality available (QSS Assist TRICA_MSA Kit). Enzyme was purchased from Cell Signaling, and was used without further purification. 384-well round bottom assay plates were prepared by the addition of […] of a DMSO solution of compound at various concentrations to final inhibitor concentrations ranging from 100 μM to 0.2 μM. Next, assay buffer (10 μl) containing substrate and ATP were added, followed by addition of 10 μl of enzyme in assay buffer. Final assays concentrations were: [E]=0.37 nM, [S]=1 μM, [ATP]=2 mM. The reactions were incubated at room temperature for 3 hours resulting in approximately 15% substrate phosphorylation and were terminated by the addition of 5 μl of stop buffer. Substrates and products were separated on the Caliper EZReader II (Caliper LifeSciences, Inc.) using standard separation protocols. The percent inhibition was calculated for each compound concentration and the IC50 was determined using equation 1.

T1 sequence (P04629 33-796): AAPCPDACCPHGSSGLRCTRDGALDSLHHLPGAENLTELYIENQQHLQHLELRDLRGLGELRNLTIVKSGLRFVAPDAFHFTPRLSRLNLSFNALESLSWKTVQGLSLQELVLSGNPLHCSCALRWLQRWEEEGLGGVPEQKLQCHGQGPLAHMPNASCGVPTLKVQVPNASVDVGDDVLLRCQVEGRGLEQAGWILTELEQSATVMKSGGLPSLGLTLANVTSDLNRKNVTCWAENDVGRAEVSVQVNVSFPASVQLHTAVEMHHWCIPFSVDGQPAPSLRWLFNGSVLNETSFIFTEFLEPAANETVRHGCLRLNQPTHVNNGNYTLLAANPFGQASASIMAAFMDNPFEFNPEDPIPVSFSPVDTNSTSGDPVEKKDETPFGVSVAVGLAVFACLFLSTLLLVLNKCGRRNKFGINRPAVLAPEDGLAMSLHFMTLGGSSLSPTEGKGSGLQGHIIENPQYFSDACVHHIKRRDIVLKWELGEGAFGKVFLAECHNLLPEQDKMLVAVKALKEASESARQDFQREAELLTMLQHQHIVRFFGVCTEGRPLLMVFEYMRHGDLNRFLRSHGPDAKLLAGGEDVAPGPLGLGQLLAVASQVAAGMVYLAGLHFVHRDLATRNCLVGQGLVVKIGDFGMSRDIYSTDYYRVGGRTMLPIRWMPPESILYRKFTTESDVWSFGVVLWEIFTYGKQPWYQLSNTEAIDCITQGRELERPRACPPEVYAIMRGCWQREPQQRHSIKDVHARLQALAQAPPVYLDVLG

| SMILES | EC50 |
| --- | --- |
| CCCNc1ncc(-c2nccc3c2cc(C(=O)O)n3CCOc2ccc(OC(F)(F)F)cc2)s1 [Example 57, 4-[2-(propylamino)-1,3-thiazol-5-yl]-1-{2-[4-(trifluoromethoxy)phenoxy]ethyl}-1H-pyrrolo[3,2-c]pyridine-2-carboxylic acid] | 162 nM |
| O=C(O)c1cc2cc(-c3cn[nH]c3)ccc2n1CCOc1ccc(OC(F)(F)F)cc1 [Example 76, 5-(1H-pyrazol-4-yl)-1-{2-[4-(trifluoromethoxy)phenoxy]ethyl}-1H-indole-2-carboxylic acid] | 28.5 nM |
| O=C(O)c1cc2cc(-c3cncnc3)ccc2n1CCOc1ccc(OC(F)(F)F)cc1 [Example 78, 5-pyrimidin-5-yl-1-{2-[4-(trifluoromethoxy)phenoxy]ethyl}-1H-indole-2-carboxylic acid] | 38.7 nM |
| O=C(O)c1cc2cc(-c3cccnc3)ccc2n1CCOc1ccc(OC(F)(F)F)cc1 [Example 81, 5-pyridin-3-yl-1-{2-[4-(trifluoromethoxy)phenoxy]ethyl}-1H-indole-2-carboxylic acid] | 469 nM |
| CCOc1cccc(-c2nccc3c(CCOc4ccc(OC(F)(F)F)cc4)c(C(=O)O)[nH]c23)c1 [Example 91, 7-(3-ethoxyphenyl)-3-{2-[4-(trifluoromethoxy)phenoxy]ethyl}-1H-pyrrolo[2,3-d]pyridine-2-carboxylic acid] | 34.9 nM |
| CCOc1cccc(-c2nccn3c(CCOc4ccc(OC(F)(F)F)cc4)c(C(=O)O)nc23)c1 [Example 92, 8-(3-ethoxyphenyl)-3-{2-[4-(trifluoromethoxy)phenoxy]ethyl}imidazo[1,2-a]pyrazine-2-carboxylic acid] | 1210 nM |

The remaining lines, values ahead:

| EC50 | SMILES |
| --- | --- |
| 5360 nM | O=C(O)c1cc2c(-c3cccc4ncccc34)nccc2n1Cc1noc(-c2ccccc2)n1 [Example 16, 1-[(5-phenyl-1,2,4-oxadiazol-3-yl)methyl]-4-(quinolin-5-yl)-1H-pyrrolo[3,2-c]pyridine-2-carboxylic acid] |
| 3920 nM | CCOc1cccc(-c2nccc3c2cc(C(=O)O)n3CCOc2ccc(C(F)(F)F)nc2)c1 [Example 38, 4-(3-Ethoxyphenyl)-1-(2-{[6-(trifluoromethyl)Pyridin-3-yl]oxy}ethyl)-1H-pyrrolo[3,2-c]pyridine-2-carboxylic acid] |
| 30700 nM | CCCNc1nccc(-c2nccc3c2cc(C(=O)O)n3CCOc2ccc(OC(F)(F)F)cc2)n1 [Example 58, 4-[2-(propylamino)pyrimidin-4-yl]-1-{2-[4-(trifluoromethoxy)phenoxy]ethyl}-1H-pyrrolo[3,2-c]pyridine-2-carboxylic acid] |
| 776 nM | CCOc1cccc(-c2nccc3c2cc(C(=O)O)n3CCOc2ccc(Oc3nccs3)cc2)c1 [Example 73, 4-(3-ethoxyphenyl)-1-{2-[4-(1,3-thiazol-2-yloxy)phenoxy]ethyl}-1H-pyrrolo[3,2-c]pyridine-2-carboxylic acid] |

From patent publication US9102673B2, “Substituted pyrrolo[3,2-c]pyridines as TrkA kinase inhibitors” (Merck Sharp & Dohme Corp., priority 2011, dated 2015)
